Data set [1] can be described thus: Plasma protein binding, mouse plasma. The data set is classed as in vitro ADME. To be noted: mouse, plasma, mouse plasma protein binding; read-out: PPB (m) (converted). As to the method: (§1) Plasma protein binding of the investigated compounds was determined using equilibrium dialysis in single-use Rapid Equilibrium Dialysis devices with an 8 kDa molecular weight cutoff (Thermo Fisher Scientific), following the manufacturer’s protocol. In brief, 50 μL of undiluted human plasma (Biowest), spiked with the test compound at a final concentration of 100 μM, was added to the sample chamber, while 300 μL of phosphate-buffered saline (PBS) was placed in the buffer chamber. Devices were incubated for 4 h at 37 °C with gentle shaking.
(§2) After dialysis, 7.5 μL aliquots from both the plasma and buffer chambers were transferred directly into wells of a 384-well plate. To equalize the matrices for downstream processing, 7.5 μL of PBS was added to each plasma aliquot, and 7.5 μL of plasma was added to each buffer aliquot. Proteins were precipitated by adding four volumes of ice-cold methanol to each well, followed by thorough mixing and incubation at – 20 °C for 30 min. Plates were then stored overnight at 8 °C. Prior to analysis, the plate was centrifuged at 2,000 × g for 20 min at 8 °C. […] The fraction of unbound compound was calculated using the following equations: %Free=c(bufferchamber)/c(plasmachamber)*100% %Bound=100%−%Free

Data set [2] deals with T1, recombinant human CD73 (hCD73) (Homo sapiens, UniProt P21589).
T1 sequence (P21589 27-574): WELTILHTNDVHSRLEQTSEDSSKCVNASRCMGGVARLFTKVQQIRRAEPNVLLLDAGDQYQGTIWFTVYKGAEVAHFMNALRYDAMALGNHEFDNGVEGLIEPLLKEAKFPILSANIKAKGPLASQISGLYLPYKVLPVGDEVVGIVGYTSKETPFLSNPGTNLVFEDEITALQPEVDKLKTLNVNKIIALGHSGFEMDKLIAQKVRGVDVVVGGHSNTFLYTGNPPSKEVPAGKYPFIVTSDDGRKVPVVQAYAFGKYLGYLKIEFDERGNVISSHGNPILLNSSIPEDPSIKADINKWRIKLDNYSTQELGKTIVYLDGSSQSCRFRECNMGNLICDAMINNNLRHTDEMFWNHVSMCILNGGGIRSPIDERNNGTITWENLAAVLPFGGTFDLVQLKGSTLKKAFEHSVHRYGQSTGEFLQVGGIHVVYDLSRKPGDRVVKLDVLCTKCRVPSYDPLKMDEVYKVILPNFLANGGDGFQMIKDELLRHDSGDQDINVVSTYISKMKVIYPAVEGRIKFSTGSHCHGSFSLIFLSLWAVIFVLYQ
As to the kind of experiment: CD73 activity assay on recombinant human CD73. The class given is biochemical. As to conditions: ΔGexp = RT ln Ki.

The nature of data set [3]: Kinetic solubility in PBS. The class given is physicochemical. To be noted: phosphate-buffered saline, pH 7.4, aqueous buffer, kinetic from dmso stock. On the procedure:
Test compounds were prepared as 10 mM stock solutions in DMSO and diluted in phosphate-buffered saline (PBS, pH 7.4) to a 100 μM solution, which was then aliquoted in duplicate. The duplicate samples were incubated in Multiscreen PCF Filter Plates (Merck Millipore) with sealed bottom at room temperature on a shaker for 2 h to allow equilibration. Following incubation, the samples were centrifuged into nonsterile, flat-bottom 96-well plates at 2,200 RCF for 12 min. Supernatants were then diluted 1:99 in a solution of 50% acetonitrile containing 0.1% DMSO. The diluted samples were transferred to 384-well Echo plates, which contained prespotted calibration standards prepared by Echo transfer of 10 mM and 1 mM DMSO stock solutions, resulting in calibration points ranging from 0.05 to 4 μM. Samples and standards were subsequently analyzed by Echo-MS.

The nature of data set [4]: Plasma protein binding, equilibrium dialysis, human plasma. The class given is in vitro ADME. As to conditions: undiluted plasma, human plasma protein binding, read-out: PPB (hu) (converted). As to the method:
as §1, §2
A general note: In equilibrium dialysis free small molecules cross a membrane that holds back macromolecules.

The nature of data set [5]: Microsomal stability assay, mouse liver microsomes. The data set is classed as in vitro ADME. As to conditions: for Mics (m) comp remaining 60 min: 10 μM; for microsomal CLint at 10 µM: pooled liver microsomes, pH 7.4, read-out: Mics (m) CLint. A general note: Microsomes from liver hold many membrane-bound enzymes, among them those of drug oxidation.
Data set [6] has as its system HL-60. As to the kind of experiment: In vitro cytotoxic activity. The class given is cell-based. To be noted: Homo sapiens. As to the method:
(§3) All the compounds were also tested for their in vitro cytotoxic activity on a small panel of four cancer cell lines (CCRF-CEM, HepG2, HeLa S3, HL-60) and nonmalignant human dermal fibroblasts (NHDF).

Data set [7] has as its system CCRF-CEM. As to the kind of experiment: In vitro cytotoxic activity. The data set is classed as cell-based. To be noted: Homo sapiens. As to the method: as §3
For data set [8], the system named is HeLa S3. In words: In vitro cytotoxic activity. As to conditions: Homo sapiens. The class given is cell-based. On the procedure:
as §3

Data set [9] deals with nonmalignant human dermal fibroblasts (NHDF). As to the kind of experiment: In vitro cytotoxic activity. The class given is cell-based. As to the method: as §3
For data set [10], the system named is HepG2. In words: In vitro cytotoxic activity. The data set is classed as cell-based. To be noted: Homo sapiens. On the procedure: as §3
Data set [11] is described as follows: in vitro. As to conditions: human, plasma.
Data set [12] is described as follows: in vitro. To be noted: mouse, plasma.
Data set [13] can be described thus: Microsomal stability assay, human liver microsomes. The data set is classed as in vitro ADME. As to conditions: for Mics (hu) comp remaining 60 min: 10 μM; for microsomal CLint at 10 µM: pooled liver microsomes, pH 7.4, read-out: Mics (hu) CLint.

Structures are written as SMILES. Converted amounts (≈) assume the structure as drawn.

Turning to `Nc1nc(-c2cccc3c2CCCC3)c2ccn([C@@H]3O[C@H](COP(=O)(O)CP(=O)(O)O)[C@@H](O)[C@H]3O)c2n1` [11C.12], the results for the fraction unbound at 4 h, 100 µM in data set [1] and in [4] were 0.445 and 0.157, respectively. Further, in data set [2], the “dG_exp, experimental binding free energy” value is reported as “–13.9 kcal/mol”. Further, the solubility at 2 h in data set [3] worked out at 88 µM (≈ 48.8 µg/mL). Also, in [5], the “Mics (m) comp remaining 60 min” value was 100%. In addition, the microsomal CLint at 10 µM in data set [5] and in [13] was below 1 µL/min/mg each time. The IC50 in data set [6], in [7], in data set [8], in [9] and in data set [10] was above 10 µM each time. The half-life at 10 µM in data set [11] and in [12] was above 2 h in each case. Moreover, in [13], the “Mics (hu) comp remaining 60 min” value is on record as 101%.

Regarding `Cc1nc(-c2ccco2)c2ccn([C@@H]3O[C@H](COP(=O)(O)CP(=O)(O)O)[C@@H](O)[C@H]3O)c2n1` [18E.1], the fraction unbound at 4 h, 100 µM was 0.816 in data set [1] and 0.069 in data set [4]. In data set [2], the “dG_exp, experimental binding free energy” value was “–13.2 kcal/mol”. Further, the solubility at 2 h in [3] was 89 µM (≈ 43.5 µg/mL). Moreover, in [5], the “Mics (m) comp remaining 60 min” value is listed as 96%. For the same compound, the microsomal CLint at 10 µM in data set [5] was 1 µL/min/mg; in [13], below 1 µL/min/mg. In addition, the IC50 in data set [6], in [7], in data set [8], in data set [9] and in [10] was above 10 µM in each case. The half-life at 10 µM in data set [11] and in [12] was above 2 h throughout. Moreover, the “Mics (hu) comp remaining 60 min” value in data set [13] amounted to 100%.

Regarding `O=P(O)(O)CP(=O)(O)OC[C@H]1O[C@@H](n2ccc3c(-c4cccc5ccoc45)ncnc32)[C@H](O)[C@@H]1O` [4A.15], the results for the fraction unbound at 4 h, 100 µM in data set [1] and in [4] were 0.542 and 0.036, respectively. For the same compound, in [2], the “dG_exp, experimental binding free energy” value was “–13.4 kcal/mol”. In data set [3], this compound came in with a solubility at 2 h of 76 µM (≈ 39.9 µg/mL). Moreover, the “Mics (m) comp remaining 60 min” value in [5] was 102%. The microsomal CLint at 10 µM in data set [5] and in [13] was below 1 µL/min/mg throughout. Also, the IC50 in [6] was 8.6 µM; in [7], above 10 µM; in [8], above 10 µM; in [9], 5.7 µM; in [10], 8.7 µM. In addition, the half-life at 10 µM in data set [11] and in data set [12] was above 2 h each time. Moreover, the “Mics (hu) comp remaining 60 min” value in data set [13] amounted to 118%.

Turning to `O=P(O)(O)CP(=O)(O)OC[C@H]1O[C@@H](n2ccc3c(-c4ccco4)ncnc32)[C@H](O)[C@@H]1O` [4A.1, [(5-{[4-(Furan-2-yl)-7H-pyrrolo[2,3-d]pyrimidin-7-yl]-β-D-ribofuranosyl}oxy)phosphonomethyl]phosphonic Acid], the fraction unbound at 4 h, 100 µM in [1] was 0.699; in [4], 0.053. For the same compound, in [2], the “dG_exp, experimental binding free energy” value is “–12.9 kcal/mol”. Further, the concentration in solution in [3] (solubility at 2 h) was 25 µM (≈ 11.9 µg/mL). Further, the half-inhibitory concentration (IC50) in data set [6] was 3.7 µM; in data set [7] it was above 10 µM; in data set [8] it was above 10 µM; in data set [9] it was above 10 µM; in data set [10], above 10 µM. The half-life at 10 µM in [11] and in data set [12] was above 2 h each time.

With `O=P(O)(O)CP(=O)(O)OC[C@H]1O[C@@H](n2ccc3c(-c4ccccc4)ncnc32)[C@H](O)[C@@H]1O` [4A.5], the fraction unbound at 4 h, 100 µM was 0.788 in data set [1] and 0.095 in [4]. Moreover, in data set [2], the “dG_exp, experimental binding free energy” value is “–12.6 kcal/mol”. Besides, the solubility at 2 h in data set [3] is 80 µM (≈ 38.8 µg/mL). In addition, the IC50 in data set [6] is 3.7 µM; in data set [7] it was above 10 µM; in data set [8] it was above 10 µM; in data set [9], above 10 µM; in [10] it was above 10 µM. Also, the half-life at 10 µM in data set [11] and in [12] was above 2 h each time.

Consider `O=P(O)(O)CP(=O)(O)OC[C@H]1O[C@@H](n2ccc3c(-c4ccoc4)ncnc32)[C@H](O)[C@@H]1O` [4A.2], for which the fraction unbound at 4 h, 100 µM in [1] is 0.872; in data set [4], 0.162. Moreover, in data set [2], the “dG_exp, experimental binding free energy” value is “–12.5 kcal/mol”. This compound returned a solubility at 2 h in data set [3] of 97 µM (≈ 46.1 µg/mL). The 50% inhibitory concentration (IC50) in data set [6] was 2.8 µM; in [7], above 10 µM; in [8], above 10 µM; in [9], above 10 µM; in data set [10], above 10 µM. The half-life at 10 µM in data set [11] and in data set [12] was above 2 h in each case.

Turning to `O=P(O)(O)CP(=O)(O)OC[C@H]1O[C@@H](n2cnc3c(-c4ccc5ccccc5c4)ncnc32)[C@H](O)[C@@H]1O` [31A.7], the fraction unbound at 4 h, 100 µM was 0.224 in data set [1] and at most 0.01 in [4]. In data set [3], this compound had a solubility at 2 h of 86 µM (≈ 46.1 µg/mL). The “Mics (m) comp remaining 60 min” value in data set [5] worked out at 87%. The microsomal CLint at 10 µM in data set [5] was 6 µL/min/mg; in [13], below 1 µL/min/mg. Moreover, the IC50 in [6] was 7.6 µM; in data set [7] it was above 10 µM; in data set [8], above 10 µM; in data set [9] it was 3.7 µM; in [10] it was 4.8 µM. In addition, the half-life at 10 µM in [11] and in [12] was above 2 h throughout. Moreover, the “Mics (hu) comp remaining 60 min” value in data set [13] is listed as 106%.

Turning to `O=P(O)(O)CP(=O)(O)OC[C@H]1O[C@@H](n2ccc3c(-c4cccs4)ncnc32)[C@H](O)[C@@H]1O` [4A.3], the values for the fraction unbound at 4 h, 100 µM in data set [1] and in data set [4] were 0.535 and 0.081, respectively. The “dG_exp, experimental binding free energy” value in data set [2] is recorded as “–13.1 kcal/mol”. The amount in solution in data set [3] (solubility at 2 h) came to 76 µM (≈ 37.3 µg/mL). For the same compound, the IC50 is 4.2 µM in data set [6]; 9.9 µM in data set [7]; above 10 µM in [8]; above 10 µM in data set [9]; above 10 µM in [10]. For the same compound, the half-life at 10 µM in [11] and in data set [12] was above 2 h each time.

Take `N#Cc1ccc(-c2nc(Cl)nc3c2ccn3[C@@H]2O[C@H](COP(=O)(O)CP(=O)(O)O)[C@@H](O)[C@H]2O)c2ccccc12` [7B.34]: the fraction unbound at 4 h, 100 µM in data set [1] is 0.339; in data set [4] it was at most 0.01. In data set [3], this compound registered a solubility at 2 h above 100 µM. Moreover, the microsomal CLint at 10 µM in [5] and in data set [13] was below 2 µL/min/mg each time. In addition, the IC50 in data set [6], in data set [7], in [8], in [9] and in data set [10] was above 10 µM each time. The half-life at 10 µM in [11] and in data set [12] was above 2 h throughout. Further, the “Mics (hu) comp remaining 60 min” value in data set [13] is on record as 97%.

A word on the solubility: it is the dissolved amount per volume that the medium holds. High values mean much dissolved substance, low ones little dissolved substance. By IC50 is commonly meant the concentration needed to halve the response being measured. High values mean a need for much substance, low ones inhibition by little substance. What is called half-life is how long it takes for the measured level to halve. A low value points to fast loss.

These data come from PMC12797170, “Potent Competitive Inhibitors of Ecto-5′-nucleotidase (CD73) based on 6‑(Het)aryl-7-deazapurine Ribonucleoside 5′‑O‑Bisphosphonates” (ACS Pharmacology & Translational Science, 2025).
